Results reported in patent US20100075973A1, “POLO-LIKE KINASE INHIBITORS” (TAKEDA PHARMACEUTICAL COMPANY LIMITED, priority 2008, published 2010).
Several values for one entry are separate records, joined by “and”; a condition that tells them apart may be missing. Identical values can stand only once.

Target: T1, human PLK1 (Homo sapiens, UniProt P53350)
T1 construct: made in house; host or cells: Sf21 insect cells, recombinant baculovirus (pFASTBAC1, Bac-to-Bac)
Test: In vitro enzymatic assay: phosphorylation of alpha casein by recombinant PLK1 (Example A)
Type: biochemical
Conditions: recombinant FLAG-tagged PLK1, alpha casein substrate, 500 nmol/L ATP, [γ-32P]ATP, room temperature 40 min; read-out: pIC50 PLK1 (converted)
Method: Purified PLK1 may be obtained as follows. cDNA encoding human PLK1 SEQ ID No. 1, Accession Number: NM_005030 was isolated by polymerase chain reaction PCR with primers SEQ ID Nos. 2 and 3 and cloned into pcDNA4/His-Max-TOPO Invitrogen, USA according to the manufacturer's manual. PCR was performed using the vector as a template. In the PCR, primers containing sequences encoding a FLAG-tag DYKDDDDK in the amino-terminal region SEQ ID No. 4 and vector sequence SEQ ID No. 5 were used. After XbaI and XhoI digestion of the PCR product, the fragment was subcloned into pFASTBAC1 Invitrogen, USA. Recombinant baculoviruses were prepared according to the procedure of the Bac-to-Bac baculovirus expression system Invitrogen, USA. Sf21 cells were purchased from Invitrogen and grown in Sf-900 II SFM medium containing 10% fetal bovine serum, 50 gentamicin and 0.1% pluronic F-68 Invitrogen, USA at 28° C. For preparation of PLK1 enzyme, Sf21 cells were infected with recombinant baculoviruses and cultured at 28° C. for 72 h. Cells were lysed and FLAG-tagged PLK1 protein SEQ ID No. 6 was purified by affinity chromatography using anti-FLAG M2 affinity gel Sigma, USA.
The inhibition of PLK1 by the compounds was determined with the following assay that measures the phosphorylation of alpha casein by recombinant PLK1. Kinase reactions were performed at room temperature for 40 min in the kinase reaction buffer 25 mmol/L HEPES, pH 7.5, 10 mmol/L magnesium acetate, 1 mmol/L dithiothreitol containing 50 ng PLK1 enzyme, 0.1 μCi [γ-^32P]ATP, 500 nmol/L ATP and 3 μg alpha casein MP Biomedicals Inc., USA in a final volume of 50 μL. The incubation was terminated by the addition of 10% trichloroacetic acid Wako, Japan. Phosphorylated proteins were filtrated in GF/C filter plates Packard, USA with a Cell harvester Packard, USA and washed out free [γ-^32P]-ATP with 250 mmol/L phosphoric acid. Then, the plates were air dried for 60 min at 45° C., followed by the addition of 20 μL of MicroScint-O Packard, USA. The radioactivity was counted by a Top-count scintillation counter Packard, USA. The IC50 values for test compounds were calculated by Prism 3.02 GraphPad Software, USA.
pIC50 values are the negative of the log of the IC50s and may be calculated by non-linear curve fitting of the compound concentrations and fluorescence intensities to the standard pIC50 equation.

T1 sequence (P53350 whole entry): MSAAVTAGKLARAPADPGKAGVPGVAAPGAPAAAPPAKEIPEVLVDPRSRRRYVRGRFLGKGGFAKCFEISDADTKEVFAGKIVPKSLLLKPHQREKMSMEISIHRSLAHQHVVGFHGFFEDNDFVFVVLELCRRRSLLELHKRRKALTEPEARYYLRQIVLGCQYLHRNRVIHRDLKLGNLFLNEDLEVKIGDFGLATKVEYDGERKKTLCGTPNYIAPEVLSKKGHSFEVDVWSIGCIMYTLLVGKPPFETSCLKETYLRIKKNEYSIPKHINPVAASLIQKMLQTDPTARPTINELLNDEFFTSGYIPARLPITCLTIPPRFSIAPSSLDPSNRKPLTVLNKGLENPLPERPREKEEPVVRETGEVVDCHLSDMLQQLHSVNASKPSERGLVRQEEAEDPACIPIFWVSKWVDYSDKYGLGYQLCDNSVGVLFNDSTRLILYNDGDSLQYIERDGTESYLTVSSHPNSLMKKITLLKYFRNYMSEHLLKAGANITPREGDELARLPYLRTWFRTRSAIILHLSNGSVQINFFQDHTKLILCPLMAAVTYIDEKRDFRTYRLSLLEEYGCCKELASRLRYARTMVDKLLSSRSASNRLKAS

Row | IC50 [nM] | SMILES
1 | 1.26 | CC[C@@H]1c2c(C#N)ncn2-c2cnc(Nc3cc(F)c(C(=O)NC4CCN(C5CCN(CC(C)C)CC5)CC4)cc3OC)nc2N1C1CCCC1 [Example 29, (R)-4-(7-Cyano-5-cyclopentyl-6-ethyl-5,6-dihydroimidazo[1,5-f]pteridin-3-ylamino)-2-fluoro-N-(1′-isobutyl-1,4′-bipiperidin-4-yl)-5-methoxybenzamide]
2 | 10 | CC[C@@H]1c2c(C#N)ncn2-c2cnc(Nc3cc(F)c(C(=O)Nc4cccc(CN5CCN(C)CC5)c4)cc3OC)nc2N1C(C)C [Example 31, (R)-4-(7-Cyano-6-ethyl-5-isopropyl-5,6-dihydroimidazo[1,5-f]pteridin-3-ylamino)-2-fluoro-5-methoxy-N-(3-((4-methylpiperazin-1-yl)methyl)phenyl)benzamide]
3 | 3.16 | CC[C@@H]1c2c(C#N)ncn2-c2cnc(Nc3ccc(C(=O)NC4CN(C5CCN(CC6CC6)CC5)C4)cc3OC)nc2N1C(C)C [Example 37, (R)-4-(7-Cyano-6-ethyl-5-isopropyl-5,6-dihydroimidazo[1,5-f]pteridin-3-ylamino)-N-(1-(1-(cyclopropylmethyl)piperidin-4-yl)azetidin-3-yl)-3-methoxybenzamide]
4 | 2 | CC[C@@H]1c2c(C#N)ncn2-c2cnc(Nc3ccc(C(=O)NC4CCN(C5CCN(CC)CC5)CC4)cc3OC)nc2N1C(C)C [Example 19, (R)-4-(7-Cyano-6-ethyl-5-isopropyl-5,6-dihydroimidazo[1,5-f]pteridin-3-ylamino)-N-(1′-ethyl-1,4′-bipiperidin-4-yl)-3-methoxybenzamide]
5 | 3.98 | CC[C@@H]1c2c(C#N)ncn2-c2cnc(Nc3cc(F)c(C(=O)NC4CCN(C5CCN(CC6CC6)CC5)CC4)cc3OC)nc2N1C(C)C [Example 22, (R)-4-(7-Cyano-6-ethyl-5-isopropyl-5,6-dihydroimidazo[1,5-f]pteridin-3-ylamino)-N-(1′-(cyclopropylmethyl)-1,4′-bipiperidin-4-yl)-2-fluoro-5-methoxybenzamide]
6 | 3.16 | CC[C@@H]1c2c(C#N)ncn2-c2cnc(Nc3cc(F)c(C(=O)NC4CN(C5CCN(CC6CC6)CC5)C4)cc3OC)nc2N1C(C)C [Example 38, (R)-4-(7-Cyano-6-ethyl-5-isopropyl-5,6-dihydroimidazo[1,5-f]pteridin-3-ylamino)-N-(1-(1-(cyclopropylmethyl)piperidin-4-yl)azetidin-3-yl)-2-fluoro-5-methoxybenzamide]
7 | 2 | CC[C@@H]1c2c(C#N)ncn2-c2cnc(Nc3ccc(C(=O)NC4CCN(C5CCN(CC(C)C)CC5)CC4)cc3OC)nc2N1C1CCCC1 [Example 27, (R)-4-(7-Cyano-5-cyclopentyl-6-ethyl-5,6-dihydroimidazo[1,5-f]pteridin-3-ylamino)-N-(1′-isobutyl-1,4′-bipiperidin-4-yl)-3-methoxybenzamide]
8 | 3.98 | CC[C@@H]1c2c(C#N)ncn2-c2cnc(Nc3cc(F)c(C(=O)NC4CCN(C5CCN(CC)CC5)CC4)cc3OC)nc2N1C(C)C [Example 20, (R)-4-(7-Cyano-6-ethyl-5-isopropyl-5,6-dihydroimidazo[1,5-f]pteridin-3-ylamino)-N-(1′-ethyl-1,4′-bipiperidin-4-yl)-2-fluoro-5-methoxybenzamide]
9 | 1 | CC[C@@H]1c2c(C#N)ncn2-c2cnc(Nc3ccc(C(=O)NC4CCN(C5CCN(CC6CC6)CC5)CC4)cc3OC)nc2N1C1CCCC1 [Example 26, (R)-4-(7-Cyano-5-cyclopentyl-6-ethyl-5,6-dihydroimidazo[1,5-f]pteridin-3-ylamino)-N-(1′-(cyclopropylmethyl)-1,4′-bipiperidin-4-yl)-3-methoxybenzamide]
10 | 3.16 | CC[C@@H]1c2c(C#N)ncn2-c2cnc(Nc3ccc(C(=O)NC4CCN(C5CCN(CC6CC6)CC5)CC4)cc3OC)nc2N1C(C)C [Example 21, (R)-4-(7-Cyano-6-ethyl-5-isopropyl-5,6-dihydroimidazo[1,5-f]pteridin-3-ylamino)-N-(1′-(cyclopropylmethyl)-1,4′-bipiperidin-4-yl)-3-methoxybenzamide]

System: not given
Test: not given
Conditions: not given

Row | melting point | SMILES
11 | 165 to 170 °C | CC[C@@H]1c2c(C#N)ncn2-c2cnc(Nc3ccc(C(=O)NC4CCC(N5CCN(CC(C)C)CC5)CC4)cc3OC)nc2N1C(C)C (some centres unmarked) [Example 12]
12 | 195 to 198 °C | CC[C@@H]1c2c(C#N)ncn2-c2cnc(Nc3ccc(C(=O)NC4CCC(N5CCN(C)CC5)CC4)cc3OC)nc2N1C(C)C (some centres unmarked) [Example 9]
13 | > 205 °C | CC[C@@H]1c2c(C#N)ncn2-c2cnc(Nc3cc(F)c(C(=O)NC4CCC(N5CCN(C)CC5)CC4)cc3OC)nc2N1C1CCCC1 (some centres unmarked) [Example 6]
14 | 165 to 170 °C | CC[C@@H]1c2c(C#N)ncn2-c2cnc(Nc3ccc(C(=O)NC4CCN(C5CCN(CC(C)C)CC5)CC4)cc3OC)nc2N1C(C)C [Example 23, (R)-4-(7-Cyano-6-ethyl-5-isopropyl-5,6-dihydroimidazo[1,5-f]pteridin-3-ylamino)-N-(1′-isobutyl-1,4′-bipiperidin-4-yl)-3-methoxybenzamide]
15 | 198 to 204 °C | CC[C@@H]1c2c(C#N)ncn2-c2cnc(Nc3ccc(C(=O)NC4CCC(N5CCN(CC6CC6)CC5)CC4)cc3OC)nc2N1C(C)C (some centres unmarked) [Example 11]
16 | 187 to 192 °C | CC[C@@H]1c2c(C#N)ncn2-c2cnc(Nc3ccc(C(=O)NC4CCC(N5CCN(C)CC5)CC4)cc3OC)nc2N1C1CCCC1 (some centres unmarked) [Example 2]
17 | 186 to 190 °C | CC[C@@H]1c2c(C#N)ncn2-c2cnc(Nc3ccc(C(=O)N[C@H]4CC[C@H](N5CCN(CC6CC6)CC5)CC4)cc3OC)nc2N1C1CCCC1 [Example 5]
18 | 219 to 222 °C | CC[C@@H]1c2c(C#N)ncn2-c2cnc(Nc3cc(F)c(C(=O)NC4CCC(N5CCN(CC(C)C)CC5)CC4)cc3OC)nc2N1C(C)C (some centres unmarked) [Example 18]
19 | 155 to 158 °C | CC[C@@H]1c2c(C#N)ncn2-c2cnc(Nc3cc(F)c(C(=O)NC4CCC(N5CCN(CC(C)C)CC5)CC4)cc3OC)nc2N1C1CCCC1 (some centres unmarked) [Example 8]
20 | 219 to 222 °C | CC[C@@H]1c2c(C#N)ncn2-c2cnc(Nc3ccc(C(=O)N[C@H]4CC[C@H](N5CCN(CC6CC6)CC5)CC4)c(F)c3)nc2N1C(C)C [Example 45]
21 | 216 to 220 °C | CC[C@@H]1c2c(C#N)ncn2-c2cnc(Nc3ccc(C(=O)NC4CCC(N5CCN(C(C)C)CC5)CC4)cc3OC)nc2N1C1CCCC1 (some centres unmarked) [Example 4]
22 | 170 to 173 °C | CC[C@@H]1c2c(C#N)ncn2-c2cnc(Nc3ccc(C(=O)NC4CCC(N5CCN(CC)CC5)CC4)cc3OC)nc2N1C1CCCC1 (some centres unmarked) [Example 3]
23 | 251 to 255 °C and 250 to 254 °C | CC[C@@H]1c2c(C#N)ncn2-c2cnc(Nc3cc(F)c(C(=O)N[C@H]4CC[C@H](N5CCN(CC6CC6)CC5)CC4)cc3OC)nc2N1C(C)C [Example 1]
